Measurements as given in patent US20240287154A1, “MC3R AGONIST PEPTIDES” (The Regents of the University of Michigan, priority 2021, published 2024).
Non-standard residues stand in square brackets, D forms with d. Residues, ends and D or L forms follow the SMILES beside them. Phe(4-Br) = N[C@@H](Cc1ccc(Br)cc1)C(=O)O; Phe(4-I) = N[C@@H](Cc1ccc(I)cc1)C(=O)O; NMeY = CN[C@@H](Cc1ccc(O)cc1)C(=O)O; Nle = CCCC[C@H](N)C(=O)O; Aib = CC(C)(N)C(=O)O

What was measured:
human MC4R = human MC4R (Homo sapiens, UniProt P32245); experiment: Intracellular cAMP levels in live cells, MC3R selectivity relative to MC4R; type: cell-based; details: cAMP assays in human MC3R and human MC4R stable cell lines
Sequence of human MC4R (P32245 whole entry): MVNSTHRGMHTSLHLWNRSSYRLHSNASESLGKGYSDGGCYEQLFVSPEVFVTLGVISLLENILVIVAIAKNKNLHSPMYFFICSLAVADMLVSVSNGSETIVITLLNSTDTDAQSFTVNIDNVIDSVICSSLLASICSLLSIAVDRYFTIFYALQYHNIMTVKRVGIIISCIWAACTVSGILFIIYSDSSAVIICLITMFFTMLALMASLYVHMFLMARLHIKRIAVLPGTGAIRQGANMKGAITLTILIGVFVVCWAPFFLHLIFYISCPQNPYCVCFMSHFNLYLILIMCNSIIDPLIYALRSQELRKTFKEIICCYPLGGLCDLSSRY

in vitro = experiment: in vitro
Protocol: Pooled mouse plasma was prepared and stored at −80° C. prior to use. 396 μL mouse plasma was incubated at 37° C. for 5 minutes in 1.5 mL microcentrifuge tubes. 4 μL of 100 μM test or control compound/peptide was added to each tube and incubated for 0.5, 15, 30, 60, 120, or 240 minutes. An aliquot of 40 μL of each reaction was stopped by the addition of 4 volume of cold acetonitrile containing 200 ng/mL of Setmelanotide as an internal standard (IS). The incubation solution was centrifuged at 3500 rpm for 10 minutes to precipitate protein. The supernatant was used for LC/MS/MS analysis. The natural log peak area ratio (compound peak […] area/internal standard peak area) was plotted against time and the gradient of the line determined.

SMILES	MC3R selectivity (relative to MC4R) (human MC4R)	half-life at 1 µM (in vitro; mouse, plasma) [min]	remaining at 5 min, 1 µM (in vitro; mouse, plasma) [%]	remaining at 0.25 h, 1 µM (in vitro; mouse, plasma) [%]	remaining at 0.5 h, 1 µM (in vitro; mouse, plasma) [%]	remaining at 1 h, 1 µM (in vitro; mouse, plasma) [%]	Mouse Plasma Stability, time point 0 min (in vitro; pooled mouse plasma, 37° C.) [%]	other results
CCCC[C@H](NC(=O)[C@@H](NC(=O)[C@@H](N)Cc1ccc(O)cc1)C(C)C)C(=O)N[C@H](C)C(=O)N[C@@H](Cc1c[nH]cn1)C(=O)N[C@@H](Cc1ccccc1)C(=O)N[C@@H](CCCNC(=N)N)C(=O)N[C@H](Cc1c[nH]c2ccccc12)C(=O)N[C@@H](CC(=O)O)C(=O)N[C@@H](CCCNC(=N)N)C(=O)N[C@@H](Cc1ccccc1)C(=O)NCC(=O)O [CTX-1103, Tyr-Val-Nle-D-Ala-His-Phe-Arg-D-Trp-Asp-Arg-Phe-Gly] (H-YV[Nle][dA]HFR[dW]DRFG-OH)	229	1.46	9.3	0.21	0.03	0.02	100	–
CC(C)[C@H](NC(=O)[C@@H](N)Cc1ccc(O)cc1)C(=O)N[C@@H](CCC(=O)O)C(=O)NCC(=O)N[C@@H](Cc1c[nH]cn1)C(=O)N[C@@H](Cc1ccccc1)C(=O)N[C@@H](CCCNC(=N)N)C(=O)N[C@H](Cc1c[nH]c2ccccc12)C(=O)N[C@@H](CC(=O)O)C(=O)N[C@@H](CCCNC(=N)N)C(=O)N[C@@H](Cc1ccccc1)C(=O)NCC(N)=O [CTX-1105, Tyr-Val-Glu-Gly-His-Phe-Arg-D-Trp-Asp-Arg-Phe-Gly] (H-YVEGHFR[dW]DRFG-NH2)	500	2.38	23.4	1.51	0.3	0.27	100	remaining at 2 h, 1 µM (in vitro; mouse, plasma): 0.12%
CCCC[C@H](NC(=O)[C@@H](NC(=O)[C@@H](N)Cc1ccc(O)cc1)C(C)C)C(=O)N[C@H](C)C(=O)N[C@@H](Cc1c[nH]cn1)C(=O)N[C@@H](Cc1ccccc1)C(=O)N[C@@H](CCCNC(=N)N)C(=O)N[C@H](Cc1c[nH]c2ccccc12)C(=O)N[C@@H](CC(=O)O)C(N)=O [CTX-1108, Tyr-Val-Nle-D-Ala-His-Phe-Arg-D-Trp-Asp] (H-YV[Nle][dA]HFR[dW]D-NH2)	79	1.32	7.21	0.33	0.04	0.01	100	–
CCCC[C@H](NC(=O)[C@@H](NC(=O)[C@H](Cc1ccc(O)cc1)NC)C(C)C)C(=O)N[C@H](C)C(=O)N[C@@H](Cc1c[nH]cn1)C(=O)N[C@@H](Cc1ccccc1)C(=O)N[C@@H](CCCNC(=N)N)C(=O)N[C@H](Cc1c[nH]c2ccccc12)C(=O)N[C@@H](CC(=O)O)C(N)=O [CTX-1141, NMe-Tyr-Val-Nle-D-Ala-His-Phe-Arg-D-Trp-Asp] (H-[NMeY]V[Nle][dA]HFR[dW]D-NH2)	55	> 240	106	118	95	91.8	100	remaining at 2 h, 1 µM (in vitro; mouse, plasma): 108%; remaining at 4 h, 1 µM (in vitro; mouse, plasma): 63.9%
CCCC[C@H](NC(C)=O)C(=O)NC(C)(C)C(=O)N[C@@H](Cc1c[nH]cn1)C(=O)N[C@@H](Cc1ccc(I)cc1)C(=O)N[C@@H](CCCNC(=N)N)C(=O)N[C@H](Cc1c[nH]c2ccccc12)C(=O)NCC(N)=O [CTX-1545, Nle-Aib-His-Phe(4-I)-Arg-D-Trp-Gly] (Ac-[Nle][Aib]H[Phe(4-I)]R[dW]G-NH2)	14	–	–	–	–	–	–	–
CSCC[C@H](NC(=O)[C@@H](NC(=O)[C@@H](N)Cc1ccc(O)cc1)C(C)C)C(=O)NCC(=O)N[C@@H](CCCNC(=N)N)C(=O)N[C@@H](Cc1ccccc1)C(=O)N[C@@H](CCCNC(=N)N)C(=O)N[C@H](Cc1c[nH]c2ccccc12)C(=O)N[C@@H](CC(=O)O)C(=O)N[C@@H](CCCNC(=N)N)C(=O)N[C@@H](Cc1ccccc1)C(=O)NCC(=O)O [CTX-1548, Tyr-Val-Met-Gly-Arg-Phe-Arg-D-Trp-Asp-Arg-Phe-Gly] (H-YVMGRFR[dW]DRFG-OH)	267	–	–	–	–	–	–	–
CCCC[C@H](NC(=O)[C@@H](NC(=O)[C@@H](N)Cc1ccc(O)cc1)C(C)C)C(=O)NCC(=O)N[C@@H](CCCNC(=N)N)C(=O)N[C@@H](Cc1ccccc1)C(=O)N[C@@H](CCCNC(=N)N)C(=O)N[C@H](Cc1c[nH]c2ccccc12)C(=O)N[C@@H](CC(=O)O)C(=O)N[C@@H](CCCNC(=N)N)C(=O)N[C@@H](Cc1ccccc1)C(=O)NCC(=O)O [CTX-1549, Tyr-Val-Nle-Gly-Arg-Phe-Arg-D-Trp-Asp-Arg-Phe-Gly] (H-YV[Nle]GRFR[dW]DRFG-OH)	102	–	–	–	–	–	–	–
CCCC[C@H](NC(=O)[C@@H](NC(=O)[C@@H](N)Cc1ccc(O)cc1)C(C)C)C(=O)N[C@H](C)C(=O)N[C@@H](Cc1c[nH]cn1)C(=O)N[C@@H](Cc1ccc(Br)cc1)C(=O)N[C@@H](CCCNC(=N)N)C(=O)N[C@H](Cc1c[nH]c2ccccc12)C(=O)N[C@@H](CC(=O)O)C(=O)N[C@@H](CCCNC(=N)N)C(=O)N[C@@H](Cc1ccccc1)C(=O)NCC(=O)O [CTX-2120, Tyr-Val-Nle-D-Ala-His-Phe(4-Br)-Arg-D-Trp-Asp-Arg-Phe-Gly] (H-YV[Nle][dA]H[Phe(4-Br)]R[dW]DRFG-OH)	173	2.01	17.9	0.78	0.13	0.09	100	–
CCCC[C@H](NC(=O)[C@@H](NC(=O)[C@@H](N)Cc1ccc(O)cc1)C(C)C)C(=O)N[C@H](C)C(=O)N[C@@H](Cc1c[nH]cn1)C(=O)N[C@@H](Cc1ccc(I)cc1)C(=O)N[C@@H](CCCNC(=N)N)C(=O)N[C@H](Cc1c[nH]c2ccccc12)C(=O)N[C@@H](CC(=O)O)C(=O)N[C@@H](CCCNC(=N)N)C(=O)N[C@@H](Cc1ccccc1)C(=O)NCC(=O)O [CTX-2122, Tyr-Val-Nle-D-Ala-His-Phe(4-I)-Arg-D-Trp-Asp-Arg-Phe-Gly] (H-YV[Nle][dA]H[Phe(4-I)]R[dW]DRFG-OH)	324	–	–	–	–	–	–	–
CCN(CC)CCNC(=O)c1ccc(N)cc1 [Procainamide, reference compound]	–	–	–	–	–	–	–	Mouse Plasma Stability, time point 0 min (in vitro; mouse, 1 µM): 100.00; Mouse Plasma Stability, time point 5 min (in vitro; mouse, 1 µM): 101.53; Mouse Plasma Stability, time point 15 min (in vitro; mouse, 1 µM): 109.16; Mouse Plasma Stability, time point 30 min (in vitro; mouse, 1 µM): 103.05; Mouse Plasma Stability, time point 60 min (in vitro; mouse, 1 µM): 104.43; Mouse Plasma Stability, time point 120 min (in vitro; mouse, 120 min, 1 µM): 110.61; Mouse Plasma Stability, time point 240 min (in vitro; mouse, 240 min, 1 µM): 108.17
CCN(CC)CCOC(=O)c1ccc(N)cc1 [Procaine, reference compound]	–	–	–	–	–	–	100	half-life at 1 µM (in vitro; mouse, pooled mouse plasma): 3.81 min; Mouse Plasma Stability, time point 5 min (in vitro; pooled mouse plasma, 37° C.): 40.3%; Mouse Plasma Stability, time point 15 min (in vitro; pooled mouse plasma, 37° C., in % (unit assumed)): 8.80; Mouse Plasma Stability, time point 30 min (in vitro; pooled mouse plasma, 37° C.): 2.15%; Mouse Plasma Stability, time point 60 min (in vitro; pooled mouse plasma, 37° C.): 0.44%
